Results: paper PMC10562414, “GLP-1R signaling neighborhoods associate with the susceptibility to adverse drug reactions of incretin mimetics” (Nature Communications, 2023)

Assays:
[1] = target: T1, GLP-1R (Homo sapiens, UniProt P43220); experiment: Hierarchical / k-means / fuzzy clustering of GLP-1R agonist signaling profiles (z-scored Emax and EC50, cluster centers)
Text: Using ebBRET, we extended our pathway profiling to endosomes, the Golgi apparatus and the endoplasmic reticulum. […] In short, positive k-means cluster centers were indicative of high potency or efficacy in a specific pathway and compartment, whereas negative k-means cluster centers could be interpreted as pathways that were underrepresented or not activated by a given drug cluster (Fig. 6c).
Efficacy and potency were extracted from concentration-response curves and aggregated before k-means clustering. b Hierarchical clustering of GLP-1R agonists based on signaling neighborhood profiles. c Cluster centers of distinct drug clusters identified by k-means clustering. Defining cluster features are listed by rank order, and the top and bottom five features are highlighted for each cluster.
represented as z-scores. Pathways that were not activated by GLP-1R upon exposure to ligand
according to efficacy or potency, compartments, and pathways. Pathways that were not activated
by any drug were removed for clarity. c, Heatmap and hierarchical clustering of efficacy for 8
drugs in 15 pathways and 4 cellular compartments. Data are represented as z-scores.

[2] = target: kinase substrates (Kinase Library); experiment: Kinase substrate enrichment analysis of regulated phosphopeptides; set-up: species or system human; conditions: 1 μM
Method: All further data processing was performed in R (version 4.2.1). Only phosphopeptides with a localization score of at least 0.75 were considered for further analysis. Peptides quantified with different charge states were aggregated and only phosphopeptides with at least 2 quantifications for each time point, treatment and replicate were kept. Intensities were normalized by median centering and log2-scaling. Missing values were imputed by k-NN imputation. All statistical comparisons were performed based on homoscedastic two-tailed Student’s t-tests. For the kinase substrate enrichment analysis, the Kinase Library online analytical tool[73] was used with predetermined foreground and background sets based on previously determined significance thresholds (P < 0.05; log2 fold change >1). All remaining settings were left as default.

[3] = test system: GLP-1R-expressing HEK293 cells + Dyngo-4A (phosphoproteome); experiment: Phosphoproteomics, GLP-1R-transfected cells with internalization inhibitor Dyngo-4A, 30 min; format: cell-based, human; conditions: 1 μM, 30 min, vs vehicle, n = 3
Method: (§1) P values were calculated by a two-sided unpaired t-test.
(§2) HEK293 cells (350,000 cells/mL) were transfected in suspension using 3 μg of linear PEI (MW 25,000) per 1 μg of plasmid DNA and seeded onto poly-D-lysine-coated 60 mm dishes at a density of 1,750,000 cells per dish. After a 24-h incubation, cells were washed twice with PBS and placed in starvation media (DMEM with penicillin/streptomycin). After a 48-h incubation, cells were washed twice with HBSS and maintained in the same buffer. […] Cell extracts were prepared as previously described[64]–[66]. In short, 200 μL of the lysis buffer preheated at 95 °C (4% sodium dodecyl sulfate in 50 mM Tris adjusted to pH 8.5) was added to the cells. The samples were then denatured at 95 °C for 10 min, placed on ice and then sonicated using a probe sonicator (3 sec on, 3 sec off pulse, 1 min, 30% amplitude) (Branson). Lysate protein concentration was determined using the Pierce bicinchoninic acid assay kit (Thermo Fisher Scientific) according to the manufacturer’s instructions. The lysates were reduced using 5 mM dithiothreitol for 1 h at room temperature and alkylated using 15 mM iodoacetamide for 1 h at room temperature in the dark. Proteins were precipitated and digested on beads using MagReSyn Amine magnetic beads (ReSyn Biosciences) according to the manufacturer’s instructions. Protein digestion was conducted overnight at 37 °C with lysyl endopeptidase (LysC, Wako) (1:150 LysC/protein, w/w) and trypsin (1:300 trypsin/protein, w/w). 20% TFA, 2 M glycolic acid in 80% ACN were added to the samples at a 1:1 ratio for phosphopeptide enrichment using MagReSyn TiO2 magnetic beads (ReSyn Biosciences) according to the manufacturer’s instructions. The enriched phosphopeptides were dried overnight in a SpeedVac, resuspended into 5% formic acid (FA), desalted using StageTip (Thermo Fisher Scientific) according to the manufacturer’s instructions and dried in a SpeedVac. The experiment was performed in biological triplicates.
(§3) All parameters and settings regarding the acquisition of the proteomics data can be found in Supplementary Data 11, 12. For data acquisition, the instrument was set to peptide mode, with a trapping pressure set as low (2mTorr). An EASY-Spray Source (Thermo Fisher Scientific) was used and the column temperature was maintained with the integrated, temperature-controlled heater at 55 °C throughout the experiment. For the data presented in Fig. 5d, the column was heated at 50 °C following the manufacturer’s instructions (IonOpticks).
(§4) Acquired raw files were converted to mzML format by MSConvert (version 3.0.21258)[67] applying peak picking of the mass spectra with the vendor-provided algorithm (Thermo Fisher Scientific). The mzML files were analyzed using the FragPipe GUI v18 for both library and DIA search. […] Trypsin with up to 2 missed cleavages was set as digestion enzyme, oxidation of methionine, acetylation of the N-terminus and phosphorylation on serine, threonine and tyrosine (maximal occurrence was set to three) were set as variable modifications. Carbamidomethylation of cysteine residues was set as a fixed modification. Peptide length was restricted to 7 to 50 amino acids, and 500 to 5000 Da. The precursor tolerance was set to ±20 ppm, fragment mass tolerance to 20 ppm and MSBooster was enabled. The resulting peptide-spectrum matches were adjusted to a 1% false discovery rate with Percolator[69] as part of the Philosopher toolkit (v4.4)[70] and converted to a spectra library. DIA files were analyzed by DIA-NN 1.8.1[71], [72] using the previously generated library and monitor-command mode. Peptide quantification was performed based on the fragment elution profiles from the MS2 level (area under the curve).
All further data processing was performed in R (version 4.2.1). Only phosphopeptides with a localization score of at least 0.75 were considered for further analysis. […]

[4] = test system: HEK293 cells without GLP-1R (phosphoproteome); experiment: Phosphoproteomics, untransfected / mock-transfected control cells, 30 min; format: cell-based, human; conditions: mock transfection, 1 μM, vs vehicle
Method: as §1, §2, §3
as §4, with “The precursor tolerance was set to ±20 ppm, fragment mass tolerance to 20 ppm and MSBooster was enabled. The resulting peptide-spectrum matches were adjusted to a 1% false discovery rate with Percolator[69] as part of the Philosopher toolkit (v4.4)[70] and converted to a spectra library.” left out, “curve). […]” for “curve).”

[5] = target: T1, GLP-1R; experiment: ebBRET pathway activation (15 pathways) at early endosomes (rGFP-FYVE); format: cell-based; conditions: for Efficacy (normalized) / Potency (logEC50) / Emax: Early endosomes
Method: Subcellular resolution was achieved by using organelle-specific energy acceptors for early endosomes, the Golgi apparatus and the endoplasmic reticulum.
Data are represented as the mean ± SEM (n = 3 biologically independent experiments). EE early endosomes, GA Golgi apparatus, ER endoplasmic reticulum.
HEK293 cells were cultured in DMEM supplemented with 10% FBS, 1% penicillin/streptomycin, propagated in plastic flasks and grown at 37 °C in 5% CO2 and 90% humidity. […] After a 48-hour incubation, cells were washed once with HBSS and maintained in the same buffer.
Best fit values were excluded if EC50 was outside of the concentration range tested or if the span was negative.
Pharmacological characterization of GLP-1R agonist signaling
profiles at early endosomes. a, Illustration depicting the ebBRET approach to monitoring
signaling at early endosomes. b, Concentration-response curves of GLP-1R agonists across 15
pathways at early endosomes using rGFP-F YVE. Data are represented by the non-linear fit and
scaled according to the highest responding drug (n=3 biologic ally independent samples).
Drug-s pecific polar area diagrams for efficacy (normalized to the highest responding drug) (c)
Drugs were deemed to activate
a given pathway after comparing the top and bottom parameters from non-linear regression by
Jaccard similarity index for efficacy (e) and potency (f) quantifies similarities and
differences across drug responses.
Drug- induced transducer engagement by GLP- 1R at early
endosomes. Agonist concentration response curves for 15 transducers at early endosomes.
Drugs were deemed to activate a given pathway after comparing the top and bottom parameters
from non-linear regression by one-sided extra sum-o f-s quares F-t est followed by Bonferroni
Data are represented as the mean ± SEM (n=3
biologically independent samples). Sigmoidal dose-r esponse curves are present for
responsive pathways and flat lines indicate non-r esponding pathway s.
Polar area diagrams depict pathway activation at early endosomes.
Pathway-specific polar area diagrams for efficacy (normalized to the highest responding drug) (a)
Drugs were deemed to activate a
given pathway after comparing the top and bottom parameters from non-linear regression by

T1 sequence (P43220 24-463): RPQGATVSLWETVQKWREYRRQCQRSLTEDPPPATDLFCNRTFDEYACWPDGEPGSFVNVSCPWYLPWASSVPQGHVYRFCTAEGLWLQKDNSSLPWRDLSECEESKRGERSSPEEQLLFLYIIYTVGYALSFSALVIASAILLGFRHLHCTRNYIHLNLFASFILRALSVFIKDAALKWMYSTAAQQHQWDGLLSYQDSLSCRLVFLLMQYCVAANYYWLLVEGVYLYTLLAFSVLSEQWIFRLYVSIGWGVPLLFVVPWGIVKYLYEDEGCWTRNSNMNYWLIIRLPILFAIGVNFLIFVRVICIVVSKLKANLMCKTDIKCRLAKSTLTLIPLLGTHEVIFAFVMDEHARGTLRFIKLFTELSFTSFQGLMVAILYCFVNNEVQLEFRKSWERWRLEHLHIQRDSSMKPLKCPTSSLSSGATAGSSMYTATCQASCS

For `N#Cc1ccc(COc2cccc(C3CCN(Cc4nc5ccc(C(=O)O)cc5n4C[C@@H]4CCO4)CC3)n2)c(F)c1` [Danuglipron], the z-scores [1] was -0.3536, the “drug cluster (hierarchical / k-means)” value ([1]; efficacy and potency, 15 pathways, 4 compartments) was 4 and the “defining cluster features, in words” value ([1]; k-means cluster centers) was “endoplasmic reticulum-localized recruitment of mGs and decreased recruitment of βARR at the plasma membrane”. For the same molecule, the “kinase kinetics, in words” value [2] was “distinctly different kinetics”, the “dominant_enrichment_value_log2, NUAK2” value ([2]; 15min, log10 abs adjusted p 0.784095) was 1.911 and the “dominant_enrichment_value_log2, PKACA” value ([2]; 15min, log10 abs adjusted p 0.96096) was 2.68. The “dominant_enrichment_value_log2, PRKD3” value ([2]; 15min, log10 abs adjusted p 1.61335) was 3.823, the “dominant_enrichment_value_log2, PRKD2” value ([2]; 15min, log10 abs adjusted p 1.89437) was 2.877 and the “dominant_enrichment_value_log2, SIK” value ([2]; 15min, log10 abs adjusted p 3.68823) was 3.799. For the same molecule, the “log2.foldchange, PABPN1 S19” value ([3]; Dyngo internalization inhibitor (50 μM, 30 min pre), p 0.975742) was 0.005523, the “log2.foldchange, EIF3J S13” value ([3]; Dyngo internalization inhibitor, p 0.0121456 (passed all criteria)) was 2 and the “log2.foldchange, EIF3J S11;S13” value ([3]; Dyngo internalization inhibitor, p 0.107013) was 0.1859. For the same molecule, the “log2.foldchange, VPS51 S18” value ([3]; Dyngo internalization inhibitor, p 0.460124) was -0.1867, the “log2.foldchange, POLE4 S9;T11” value ([3]; Dyngo internalization inhibitor, p 0.765877) was -0.2937 and the “log2.foldchange, EIF3J S11” value ([4]; p 0.0145494, n = 3) was -0.5603. The “log2.foldchange, VPS51 S18 (peptide ...EAPER)” value ([4]; p 0.168261, n = 3) was -0.2294, the “log2.foldchange, VPS51 S18 (peptide ...EAPERR)” value ([4]; p 0.181448, n = 3) was 0.6501 and the “log2.foldchange, VPS51 S10” value ([4]; p 0.364227, n = 3) was 0.2093. The “log2.foldchange, PABPN1 S19” value ([4]; p 0.447985, n = 3) was 0.07218, the “Efficacy (normalized)” value ([5]; GRK2/Gβγ) was 0.507 and the “Potency (logEC50)” value ([5]; GRK2/Gβγ) was 0.4671. The “Efficacy (normalized)” value ([5]; Gα11) was 0, the Emax ([5]; Gα11) was 0 and the “Potency (logEC50)” value ([5]; Gα11) was 0. The “Efficacy (normalized)” value ([5]; Gα12) was 0, the Emax ([5]; Gα12) was 0 and the “Potency (logEC50)” value ([5]; Gα12) was 0. For the same molecule, the “Efficacy (normalized)” value ([5]; Gα13) was 0, the Emax ([5]; Gα13) was 0 and the “Potency (logEC50)” value ([5]; Gα13) was 0. For the same molecule, the “Efficacy (normalized)” value ([5]; Gα14) was 0.9516, the Emax ([5]; Gα14) was 0.02161 and the “Potency (logEC50)” value ([5]; Gα14) was 0.7414. The “Efficacy (normalized)” value ([5]; Gα15) was 0, the Emax ([5]; Gα15) was 0 and the “Potency (logEC50)” value ([5]; Gα15) was 0. The “Efficacy (normalized)” value ([5]; Gαi1) was 0, the Emax ([5]; Gαi1) was 0 and the “Potency (logEC50)” value ([5]; Gαi1) was 0. For the same molecule, the “Efficacy (normalized)” value ([5]; Gαi2) was 0, the Emax ([5]; Gαi2) was 0 and the “Potency (logEC50)” value ([5]; Gαi2) was 0. For the same molecule, the “Efficacy (normalized)” value ([5]; Gαi3) was 0, the Emax ([5]; Gαi3) was 0 and the “Potency (logEC50)” value ([5]; Gαi3) was 0. The “Efficacy (normalized)” value ([5]; GαoA) was 0.4649, the Emax ([5]; GαoA) was 0.009912 and the “Potency (logEC50)” value ([5]; GαoA) was 0.573. For the same molecule, the “Efficacy (normalized)” value ([5]; GαoB) was 0.7256, the Emax ([5]; GαoB) was 0.03076 and the “Potency (logEC50)” value ([5]; GαoB) was 0.2577. The “Efficacy (normalized)” value ([5]; Gαq) was 0, the Emax ([5]; Gαq) was 0 and the “Potency (logEC50)” value ([5]; Gαq) was 0. The “Efficacy (normalized)” value ([5]; Gαs) was 0, the Emax ([5]; Gαs) was 0 and the “Potency (logEC50)” value ([5]; Gαs) was 0. The “Efficacy (normalized)” value ([5]; Gαz) was 0.5189, the Emax ([5]; Gαz) was 0.05365 and the “Potency (logEC50)” value ([5]; Gαz) was 0.2291. The “Efficacy (normalized)” value ([5]; βARR2) was 0.458, the “Potency (logEC50)” value ([5]; βARR2) was 0.384 and the Emax ([5]; GRK/Gβγ) was 0.1194. The Emax ([5]; βARR) was 0.07877 and the “mGs recruitment at early endosomes, in words” value ([5]; Rluc8-mGs, rGFP-FYVE, 60 min, n = 3) was “did not promote mGs recruitment at early endosomes at the concentrations tested”.
